From patent US8969375B2, “CDK9 kinase inhibitors” (AbbVie Inc., priority 2013, dated 2015)
Marks after values point to notes of the source that are not given here.

What was measured:
[1] = tested on: H929 cells; test: Cell viability assay (Cell TiterGlo), H929 cells; assay type: cell-based, human
Method: (§1) Cell viability assays were performed using A431 or H929 cells. A431 cells were seeded in 96-well plates at 10,000 cells/well, and after overnight incubation, treated with compounds at 2-times the final concentration to result in a dose response of 3-fold dilutions from 10 μM to 0.0005 μM (50 μL/well, 0.1% final DMSO concentration). H929 cells were seeded in 96-well plates at 10,000 cells/well and treated immediately with compounds as described above. After 24 hours at 37° C., cell viability was measured using Cell TiterGlo reagent (Promega) with a luminescence reader. Alternately, cell viability assays were performed in 384-well format. A431 cells were seeded in 384-well plates at 2500 cells/well and, after overnight incubation, treated with compounds in a dose response of 3-fold dilutions from 10 μM to 0.0005 μM ([…], 0.1% final DMSO concentration). For the H929 viability assay, […] of the compounds was dispensed into 384-well plates in a dose response as described above and cells were immediately seeded in 384-well plates at 2500 cells/well. After 24 hours at […], cell viability was measured using Cell TiterGlo reagent (Promega) with a luminescence reader.

[2] = tested on: A431 cells; test: Cell viability assay (Cell TiterGlo), A431 cells; assay type: cell-based
Method: as §1

[3] = target: T1, CDK9/Cyclin T1 (Homo sapiens, UniProt P50750); test: CDK9 enzyme activity, LANCE ULight TR-FRET kinase assay; assay type: biochemical; conditions: 1000 μM ATP, 4 nM CDK9/Cyclin T1, 30 minutes
T1 construct: purchased Carna Biosciences 04-110
Method: CDK9 enzyme activities were measured using LANCE ULight TR-FRET kinase assay reagents (PerkinElmer, Waltham, Mass.). Compounds were directly added in 100% DMSO to white low volume assay plates (Perkin Elmer Proxiplate 6008289) using a Labcyte Echo acoustic dispenser. Assay reagents in serine/threonine kinase assay buffer containing 20 mM HEPES, 10 mM MgCl2, 100 mM Na3VO4, and 0.0075% Triton X-100. were added for final reaction mixture concentrations of 1000 μM ATP, 100 nM U-light MBP peptide (Perkin Elmer TRF0109M) and reaction initiated with 4 nM CDK9/Cyclin T1 (Carna Biosciences 04-110). The kinase reaction was carried out for 30 minutes before addition of stopping buffer to a final of 20 mM EDTA and 0.5 nM of LANCE Ultra Europium anti-phospho-MBP antibody (PerkinElmer TRF0201M) in LANCE detection buffer (PerkinElmer CR97-100). The reaction was equilibrated for 1 hour and the signal read in the Perkin Elmer Envision in TR-FRET mode (excitation at 320 nm and emission at 615/665 nm).

[4] = tested on: H929 xenograft tumors; test: Xenograft tumor growth inhibition assay, H929 human multiple myeloma xenograft; assay type: in vivo, mice; conditions: IP, TW x 3; for % TGD (tumor growth delay): (T − C)/C × 100, median time to endpoint; for % TGI: female nude or SCID-beige mice, end of treatment period; for % removed from study: removed due to morbidity or weight loss in excess of 20%
Method: Xenograft Tumor Growth Inhibition Assay
The effect of Examples 1, 4, and 5 to inhibit the growth of H929 xenograft tumors implanted in mice was evaluated. NCI-H929 cells obtained from culture were suspended in cell culture medium (MEM, no calcium, no glutamine, Life Technologies Corporation) and diluted 1:1 with a solution of Matrigel™ (BD Biosciences, Franklin Lakes, N.J.). Tumor cells 5 million per site were inoculated subcutaneously into the right hind flank of female nude or SCID-beige mice (Charles River Labs).
Randomization into treatment and vehicle control groups (9-10/group) occurred when the mean tumor volume reached approximately 200 mm^3 Compounds were formulated in 2% DMSO, 5% Tween80, 20% PEG400, 73% HPMC. Administration of compound or vehicle was initiated on the day following randomization and continued for the indicated time. Tumors were measured twice a week throughout the treatment period using a pair of calipers and tumor volumes were calculated according to the formula V=L×W^2/2 (V: volume, mm^3; L: length, mm. W: width, […]). Tumor growth inhibition was calculated based on the mean tumor volume measured at the end of the treatment period according to the formula % TGI=100−mean tumor volume of treatment group/mean tumor volume of control group×100.

[5] = Homo sapiens, NCI-H929, 24 hours

T1 sequence (P50750 whole entry): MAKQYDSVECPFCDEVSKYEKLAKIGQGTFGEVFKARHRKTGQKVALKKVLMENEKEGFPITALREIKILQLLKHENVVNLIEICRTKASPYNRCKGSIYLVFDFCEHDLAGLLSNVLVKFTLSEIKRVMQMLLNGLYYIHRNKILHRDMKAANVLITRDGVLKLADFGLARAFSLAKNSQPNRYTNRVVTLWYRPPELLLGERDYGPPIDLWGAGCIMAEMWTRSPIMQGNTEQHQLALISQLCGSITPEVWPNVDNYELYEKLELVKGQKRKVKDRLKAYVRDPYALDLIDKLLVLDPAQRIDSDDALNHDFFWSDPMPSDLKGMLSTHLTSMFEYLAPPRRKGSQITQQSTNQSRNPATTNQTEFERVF
T1 sequence (O60563 whole entry partner): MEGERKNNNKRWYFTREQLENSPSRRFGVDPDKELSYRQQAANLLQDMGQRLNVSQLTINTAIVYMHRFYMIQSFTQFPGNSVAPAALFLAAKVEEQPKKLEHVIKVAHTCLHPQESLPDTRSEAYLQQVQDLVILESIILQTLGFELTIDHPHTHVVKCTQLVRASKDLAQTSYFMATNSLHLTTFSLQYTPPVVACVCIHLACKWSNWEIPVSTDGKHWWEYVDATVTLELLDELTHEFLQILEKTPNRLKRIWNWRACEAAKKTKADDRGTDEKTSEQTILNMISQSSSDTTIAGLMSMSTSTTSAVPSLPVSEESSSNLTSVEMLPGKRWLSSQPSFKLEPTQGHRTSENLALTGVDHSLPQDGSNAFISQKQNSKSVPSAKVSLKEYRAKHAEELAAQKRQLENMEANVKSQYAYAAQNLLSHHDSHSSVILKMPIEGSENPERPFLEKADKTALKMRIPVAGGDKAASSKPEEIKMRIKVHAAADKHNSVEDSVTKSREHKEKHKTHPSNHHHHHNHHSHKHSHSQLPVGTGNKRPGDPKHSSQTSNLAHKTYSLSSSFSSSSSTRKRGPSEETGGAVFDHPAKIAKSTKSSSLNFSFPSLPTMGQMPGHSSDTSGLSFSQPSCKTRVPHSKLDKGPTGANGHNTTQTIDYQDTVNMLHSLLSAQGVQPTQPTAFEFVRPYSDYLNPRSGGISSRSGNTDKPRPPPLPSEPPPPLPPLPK

Row | Compound | IC50 [3] | EC50 [1, 5] | further results
1 | 1-[(5-fluoropyridin-3-yl)methyl]-6-{2-[1-(methylsulfonyl)piperidin-4-yl]-1H-pyrrolo[2,3-b]pyridin-4-yl}-1H-benzimidazole [Example 13] | 26 nM |  | EC50 ([1]; 24 hours): 29 nM; EC50 ([2]; 24 hours): 583 nM
2 | Fc1cccc(Cn2cnc3ccc(-c4ccnc5[nH]c(C6CCNCC6)cc45)cc32)c1 [Example 2, 1-(3-fluorobenzyl)-6-[2-(piperidin-4-yl)-1H-pyrrolo[2,3-b]pyridin-4-yl]-1H-benzimidazole] | 9 nM | 44 nM | EC50 ([2]; Homo sapiens, A-431, 24 hours): 12 nM
3 | N#Cc1cn(Cc2ccccc2)c2cc(-c3ccnc4[nH]c(C5CCNCC5)cc34)ccc12 [Example 3, 1-benzyl-6-[2-(piperidin-4-yl)-1H-pyrrolo[2,3-b]pyridin-4-yl]-1H-indole-3-carbonitrile] | 24 nM | 79 nM | EC50 ([2]; Homo sapiens, A-431, 24 hours): 24 nM
4 | c1cc(-c2ccc3ncn(CC4CCOCC4)c3c2)c2cc(C3CCNCC3)[nH]c2n1 [Example 5, 6-{2-(piperidin-4-yl)-1H-pyrrolo[2,3-b]pyridin-4-yl}-1-(tetrahydro-2H-pyran-4-ylmethyl)-1H-benzimidazole] | 40 nM | 180 nM | % TGD (tumor growth delay) ([4]; 7.50 mg/kg): 20%; % TGI ([4]; 7.50 mg/kg): 39%; % removed from study ([4]; 7.50 mg/kg): 22%; % TGD (tumor growth delay) ([4]; 15 mg/kg): 31** %; % TGI ([4]; 15 mg/kg): 58** %; % removed from study ([4]; 15 mg/kg): 11%
5 | N#Cc1cn(Cc2cccc(F)c2)c2cc(-c3ccnc4[nH]c(C5CCNCC5)cc34)ccc12 [Example 8, 1-(3-fluorobenzyl)-6-[2-(piperidin-4-yl)-1H-pyrrolo[2,3-b]pyridin-4-yl]-1H-indole-3-carbonitrile] | 18 nM | 72 nM | EC50 ([2]; Homo sapiens, A-431, 24 hours): 52 nM
6 | Fc1cccc(Cn2ccc3cc(F)c(-c4ccnc5[nH]c(C6CCNCC6)cc45)cc32)c1 [Example 9, 4-[5-fluoro-1-(3-fluorobenzyl)-1H-indol-6-yl]-2-(piperidin-4-yl)-1H-pyrrolo[2,3-b]pyridine] | 50 nM | 100 nM | EC50 ([2]; Homo sapiens, A-431, 24 hours): 110 nM
7 | N#Cc1cn(Cc2cccc(F)c2)c2cc(-c3ccnc4[nH]c(C5CCN(CC(O)CO)CC5)cc34)ccc12 (stereo not drawn) [Example 10, 6-{2-[1-(2,3-dihydroxypropyl)piperidin-4-yl]-1H-pyrrolo[2,3-b]pyridin-4-yl}-1-(3-fluorobenzyl)-1H-indole-3-carbonitrile] | 18 nM | 52.3 nM | EC50 ([2]; Homo sapiens, A-431, 24 hours): 71 nM
8 | N#Cc1cn(Cc2cccc(F)c2)c2cc(-c3ccnc4[nH]c(C5CCNCC5)cc34)c(F)cc12 [Example 42, 5-fluoro-1-(3-fluorobenzyl)-6-[2-(piperidin-4-yl)-1H-pyrrolo[2,3-b]pyridin-4-yl]-1H-indole-3-carbonitrile] | 55 nM | 210 nM | 
9 | Fc1cccc(Cn2ccc3ccc(-c4ccnc5[nH]c(C6CCNCC6)cc45)nc32)c1 [Example 43, 1′-(3-fluorobenzyl)-2-(piperidin-4-yl)-1H,1′H-4,6′-bipyrrolo[2,3-b]pyridine] | 26 nM | 150 nM | 
10 | c1cc(-c2ccc3ccn(CC4CCOCC4)c3n2)c2cc(C3CCNCC3)[nH]c2n1 [Example 44, 2-(piperidin-4-yl)-1′-(tetrahydro-2H-pyran-4-ylmethyl)-1H,1′H-4,6′-bipyrrolo[2,3-b]pyridine] | 44 nM | 1100 nM | 
11 | CNC(=O)N1CCC(c2cc3c(-c4cnc5ccn(Cc6cccc(F)c6)c5c4)ccnc3[nH]2)CC1 [Example 45, 4-{4-[1-(3-fluorobenzyl)-1H-pyrrolo[3,2-b]pyridin-6-yl]-1H-pyrrolo[2,3-b]pyridin-2-yl}-N-methylpiperidine-1-carboxamide] | 30 nM | 120 nM | 
12 | CS(=O)(=O)N1CCC(c2cc3c(-c4cnc5ccn(CC6CCOCC6)c5c4)ccnc3[nH]2)CC1 [Example 46, 6-{2-[1-(methylsulfonyl)piperidin-4-yl]-1H-pyrrolo[2,3-b]pyridin-4-yl}-1-(tetrahydro-2H-pyran-4-ylmethyl)-1H-pyrrolo[3,2-b]pyridine] | 140 nM | 1800 nM | 
13 | CNC(=O)N1CCC(c2cc3c(-c4cnc5ccn(Cc6cncc(F)c6)c5c4)ccnc3[nH]2)CC1 [Example 47, 4-(4-{1-[(5-fluoropyridin-3-yl)methyl]-1H-pyrrolo[3,2-b]pyridin-6-yl}-1H-pyrrolo[2,3-b]pyridin-2-yl)-N-methylpiperidine-1-carboxamide] | 23 nM | 600 nM | 
14 | CS(=O)(=O)N1CCC(c2cc3c(-c4cnc5ccn(Cc6cncc(F)c6)c5c4)ccnc3[nH]2)CC1 [Example 48, 1-[(5-fluoropyridin-3-yl)methyl]-6-{2-[1-(methylsulfonyl)piperidin-4-yl]-1H-pyrrolo[2,3-b]pyridin-4-yl}-1H-pyrrolo[3,2-b]pyridine] | 35 nM | 540 nM | 
15 | Fc1cncc(Cn2ccc3ccc(-c4ccnc5[nH]c(C6CCNCC6)cc45)nc32)c1 [Example 49, 1′-[(5-fluoropyridin-3-yl)methyl]-2-(piperidin-4-yl)-1H,1′H-4,6′-bipyrrolo[2,3-b]pyridine] | 24 nM | 250 nM | 
16 | Fc1cncc(Cn2ccc3ncc(-c4ccnc5[nH]c(C6=CCNCC6)cc45)cc32)c1 [Example 50, 1-[(5-fluoropyridin-3-yl)methyl]-6-[2-(1,2,3,6-tetrahydropyridin-4-yl)-1H-pyrrolo[2,3-b]pyridin-4-yl]-1H-pyrrolo[3,2-b]pyridine] | 17 nM | 120 nM | 
17 | CNC(=O)N1CCC(c2cc3c(-c4ccc5ccn(Cc6cncc(F)c6)c5n4)ccnc3[nH]2)CC1 [Example 52, 4-{1′-[(5-fluoropyridin-3-yl)methyl]-1H,1′H-4,6′-bipyrrolo[2,3-b]pyridin-2-yl}-N-methylpiperidine-1-carboxamide] | 11 nM | 1100 nM | 
18 | CS(=O)(=O)N1CCC(c2cc3c(-c4ccc5ccn(Cc6cncc(F)c6)c5n4)ccnc3[nH]2)CC1 [Example 53, 1′-[(5-fluoropyridin-3-yl)methyl]-2-[1-(methylsulfonyl)piperidin-4-yl]-1H,1′H-4,6′-bipyrrolo[2,3-b]pyridine] | 8 nM | 1400 nM | 
19 | CNC(=O)N1CC=C(c2cc3c(-c4ccc5ccn(Cc6cncc(F)c6)c5n4)ccnc3[nH]2)CC1 [Example 54, 4-{1′-[(5-fluoropyridin-3-yl)methyl]-1H,1′H-4,6′-bipyrrolo[2,3-b]pyridin-2-yl}-N-methyl-3,6-dihydropyridine-1(2 H)-carboxamide] | 27 nM | 210 nM | 
20 | CS(=O)(=O)N1CC=C(c2cc3c(-c4ccc5ccn(Cc6cncc(F)c6)c5n4)ccnc3[nH]2)CC1 [Example 55, 1′-[(5-fluoropyridin-3-yl)methyl]-2-[1-(methylsulfonyl)-1,2,3,6-tetrahydropyridin-4-yl]-1H,1′H-4,6′-bipyrrolo[2,3-b]pyridine] | 65 nM | 370 nM | 
21 | Fc1cncc(Cn2ccc3ccc(-c4ccnc5[nH]c(C6=CCCNC6)cc45)nc32)c1 [Example 56, 1′-[(5-fluoropyridin-3-yl)methyl]-2-(1,2,5,6-tetrahydropyridin-3-yl)-1H,1′H-4,6′-bipyrrolo[2,3-b]pyridine] | 29 nM | 250 nM | 
